Measurements from PubChem BioAssay AID248 (DTP/NCI, 2004).
Inconclusive results and toxic doses are left out. No stated cut-off is given here; in the data, active means T/C of 150% or more; inactive means T/C below 125%.

Test system: L1210 leukemia ip in BDF1 mice, survival T/C
Experiment: NCI In Vivo Anticancer Drug Screen. Data for tumor model L1210 Leukemia (intraperitoneal) in B6D2F1 (BDF1) mice
Conditions: endpoint: mean survival time, higher = longer survival
How it was run: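 Tumor cells were implanted, animals were treated, and survival was followed. The result divides the treated measurement by the vehicle-control measurement.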

[1] = dose: 100.0 mg/kg/injection, schedule: Q04DX003 (ip), vehicle: saline with Tween-80
[2] = dose: 200.0 mg/kg/injection, schedule: Q04DX003 (ip), vehicle: saline with Tween-80
[3] = dose: 400.0 mg/kg/injection, schedule: Q04DX003 (ip), vehicle: saline with Tween-80
[4] = dose: 100.0 mg/kg/injection, schedule: Q04DX002 (ip), vehicle: Klucel (hydroxypropylcellulose) (HPC)
[5] = dose: 200.0 mg/kg/injection, schedule: Q04DX002 (ip), vehicle: Klucel (hydroxypropylcellulose) (HPC)
[6] = dose: 400.0 mg/kg/injection, schedule: Q04DX002 (ip), vehicle: Klucel (hydroxypropylcellulose) (HPC)
[7] = dose: 100.0 mg/kg/injection, schedule: Q01DX009 (ip), vehicle: saline
[8] = dose: 200.0 mg/kg/injection, schedule: Q01DX009 (ip), vehicle: saline
[9] = dose: 400.0 mg/kg/injection, schedule: Q01DX009 (ip), vehicle: saline
[10] = dose: 100.0 mg/kg/injection, schedule: Q01DX009 (ip), vehicle: Klucel (hydroxypropylcellulose) (HPC)
[11] = dose: 100.0 mg/kg/injection, schedule: Q04DX003 (ip), vehicle: Klucel (hydroxypropylcellulose) (HPC)
[12] = dose: 200.0 mg/kg/injection, schedule: Q01DX009 (ip), vehicle: Klucel (hydroxypropylcellulose) (HPC)
[13] = dose: 200.0 mg/kg/injection, schedule: Q04DX003 (ip), vehicle: Klucel (hydroxypropylcellulose) (HPC)
[14] = dose: 400.0 mg/kg/injection, schedule: Q04DX003 (ip), vehicle: Klucel (hydroxypropylcellulose) (HPC)
[15] = dose: 25.0 mg/kg/injection, schedule: Q04DX003 (ip), vehicle: saline with Tween-80
[16] = dose: 50.0 mg/kg/injection, schedule: Q04DX003 (ip), vehicle: saline with Tween-80
[17] = dose: 50.0 mg/kg/injection, schedule: Q01DX001 (ip), vehicle: saline
[18] = dose: 100.0 mg/kg/injection, schedule: Q01DX001 (ip), vehicle: saline
[19] = dose: 200.0 mg/kg/injection, schedule: Q01DX001 (ip), vehicle: saline
[20] = dose: 400.0 mg/kg/injection, schedule: Q01DX001 (ip), vehicle: saline
[21] = dose: 12.5 mg/kg/injection, schedule: Q04DX003 (ip), vehicle: saline
[22] = dose: 25.0 mg/kg/injection, schedule: Q04DX003 (ip), vehicle: saline
[23] = dose: 100.0 mg/kg/injection, schedule: Q01DX009 (ip), vehicle: saline with Tween-80
[24] = dose: 200.0 mg/kg/injection, schedule: Q01DX009 (ip), vehicle: saline with Tween-80
[25] = dose: 400.0 mg/kg/injection, schedule: Q01DX009 (ip), vehicle: saline with Tween-80
[26] = dose: 400.0 mg/kg/injection, schedule: Q01DX009 (ip), vehicle: Klucel (hydroxypropylcellulose) (HPC)

Measured: T/C

COC(=O)NC1C(C)C=CC(C)C1I (stereo unspecified)
inactive: dose: 100.0 mg/kg/injection, schedule: Q01DX009 (ip), vehicle: other 109 % of control | [1] 104 % of control | dose: 200.0 mg/kg/injection, schedule: Q01DX009 (ip), vehicle: other 96 % of control | [2] 98 % of control | dose: 400.0 mg/kg/injection, schedule: Q01DX009 (ip), vehicle: other 113 % of control | [3] 97 % of control

COC(=O)c1ccc(C(=O)OC)o1
inactive: [4] 113 % of control | [5] 98 % of control | [6] 106 % of control

COc1ccc(CC(=O)NCCc2ccc3cc(OC)c(OC)cc3c2)cc1OC
inactive: [7] 90 % of control | [8] 86 % of control | [9] 88 % of control

Cc1ccc(NC(=O)c2ccc(Cl)cc2)c(C)c1
inactive: [10] 94 % of control | [11] 106 % of control | [12] 100 % of control | [13] 96 % of control | [14] 98 % of control

CC(C)(C)C(C)(O)CN (stereo unspecified)
inactive: [7] 95 % of control | [8] 95 % of control | [9] 95 % of control

NCC1OC(OC2C(N)CC(N)C(OC3OC(CO)C(O)C(N)C3O)C2O)C(N)CC1O (stereo unspecified)
inactive: dose: 50.0 mg/kg/injection, schedule: Q04DX002 (ip), vehicle: saline 114 % of control | dose: 100.0 mg/kg/injection, schedule: Q04DX002 (ip), vehicle: saline 103 % of control | dose: 200.0 mg/kg/injection, schedule: Q04DX002 (ip), vehicle: saline 114 % of control

CCN(C(=O)Nc1cccc(Cl)c1)c1ccccc1C
inactive: [1] 93 % of control | [2] 88 % of control

Nc1nc(N)nc(-c2ccccc2N=NN2CCOCC2)n1
inactive: [11] 103 % of control | [13] 101 % of control | [14] 101 % of control

CCOC(=O)CN(C(=O)OCc1ccccc1)N(C)C(=O)OCc1ccccc1
inactive: [15] 101 % of control | [16] 94 % of control | [1] 101 % of control | [2] 97 % of control | [3] 101 % of control

Oc1ccc2c(c1)Cc1cc3ccccc3nc1-2
inactive: [17] 98 % of control | [18] 95 % of control | [19] 97 % of control | [20] 93 % of control

COc1ccc(C(=O)NCc2cccs2)cc1
inactive: [4] 91 % of control | [5] 102 % of control | [6] 97 % of control

CCN1CCC(CCOC)(CN2c3ccccc3Sc3ccccc32)C1 (stereo unspecified)
inactive: [21] 95 % of control | [22] 97 % of control | dose: 50.0 mg/kg/injection, schedule: Q04DX003 (ip), vehicle: saline 104 % of control

O=C(NCCCBr)Nc1cccc2c1CCCC2
inactive: [16] 95 % of control | [23] 100 % of control | [1] 93 % of control | [24] 97 % of control | [2] 101 % of control | [25] 96 % of control | [3] 95 % of control

CC(=O)Nc1ccc2c(c1)Cc1cc(Cl)ccc1-2
inactive: [17] 105 % of control | [18] 100 % of control | [19] 103 % of control | [20] 105 % of control

NC(N)=N/N=C(/c1ccccc1)c1ccc(N)cc1
inactive: dose: 3.5 mg/kg/injection, schedule: Q01DX Z (oral), vehicle: carboxymethylcellulose (CMC) 102 % of control | dose: 75.0 mg/kg/injection, schedule: Q01DX Z (oral), vehicle: carboxymethylcellulose (CMC) 102 % of control | dose: 150.0 mg/kg/injection, schedule: Q01DX Z (oral), vehicle: carboxymethylcellulose (CMC) 98 % of control | dose: 300.0 mg/kg/injection, schedule: Q01DX Z (oral), vehicle: carboxymethylcellulose (CMC) 104 % of control

CC(=O)n1cc(/C=C2\N=C(c3ccccc3)OC2=O)c2ccccc21
inactive: [10] 94 % of control | [12] 96 % of control | [26] 94 % of control

O=C(COc1cc(Cl)c(Cl)cc1Cl)Nc1cccc(O)c1
inactive: [10] 101 % of control | [12] 96 % of control | [26] 115 % of control

CCc1ccccc1NC(=O)Nc1cccc(O)c1
inactive: [23] 100 % of control | [24] 89 % of control | [25] 94 % of control

O=C1CCCCCCCCC(=O)CCCCCCCC1
inactive: [1] 89 % of control | [2] 86 % of control | [3] 100 % of control

C(=NCC(CCN1CCOCC1)(CCN1CCOCC1)c1cccc2ccccc12)C(CCN1CCOCC1)(CCN1CCOCC1)c1cccc2ccccc12
inactive: [15] 90 % of control | [16] 100 % of control | [1] 89 % of control

CCOC(=O)c1c[nH]c(=O)n(-c2ccccc2)c1=O
inactive: [11] 109 % of control | [13] 92 % of control | [14] 106 % of control

CC(C)C1CC(C)(C)c2cc3c(cc2O1)C(C)(C)CC(C(C)C)O3 (stereo unspecified)
inactive: [11] 91 % of control | [13] 106 % of control | [14] 96 % of control

O=C(Nc1ccccc1C(F)(F)F)C(c1ccccc1)c1ccccc1
inactive: [10] 93 % of control | [11] 96 % of control | [12] 88 % of control | [13] 96 % of control | [26] 90 % of control | [14] 95 % of control

CN/N=C1\CCC2C3CCc4cc(O)ccc4C3CCC12C (stereo unspecified)
inactive: [10] 95 % of control | [12] 89 % of control

Nc1ncnc2nc(-c3ccc(C(=O)c4cccc(NC(=O)Nc5ccc(S(=O)(=O)F)cc5)c4)cc3)[nH]c12
inactive: dose: 37.5 mg/kg/injection, schedule: Q01DX001 (ip), vehicle: saline 95 % of control | dose: 75.0 mg/kg/injection, schedule: Q01DX001 (ip), vehicle: saline 92 % of control | dose: 150.0 mg/kg/injection, schedule: Q01DX001 (ip), vehicle: saline 90 % of control

Cc1cccc2c(CCC(=O)O)c[nH]c12
inactive: [18] 100 % of control | [19] 94 % of control | [20] 94 % of control

c1ccc(Cc2cccc[n+]2Cc2ccccc2)cc1
inactive: [21] 102 % of control | [22] 105 % of control

O=C(CCc1ccc(N(CCCl)CCCl)cc1)NC1CCCC1
inactive: [11] 116 % of control | [13] 115 % of control | [14] 115 % of control

[NH-]c1ccccc1C(=O)O.[NH-]c1ccccc1C(=O)O.[Zn+2]
inactive: dose: 12.5 mg/kg/injection, schedule: Q01DX009 (ip), vehicle: Klucel (hydroxypropylcellulose) (HPC) 98 % of control | dose: 25.0 mg/kg/injection, schedule: Q01DX009 (ip), vehicle: Klucel (hydroxypropylcellulose) (HPC) 97 % of control | dose: 25.0 mg/kg/injection, schedule: Q04DX003 (ip), vehicle: Klucel (hydroxypropylcellulose) (HPC) 97 % of control | dose: 50.0 mg/kg/injection, schedule: Q01DX009 (ip), vehicle: Klucel (hydroxypropylcellulose) (HPC) 93 % of control | dose: 50.0 mg/kg/injection, schedule: Q04DX003 (ip), vehicle: Klucel (hydroxypropylcellulose) (HPC) 90 % of control | [11] 94 % of control

CC12CCCC([N+](=O)[O-])(C1)NC(=O)C2C#N (stereo unspecified)
inactive: [18] 105 % of control | [19] 106 % of control | [20] 101 % of control

CN(C)C(=S)S
inactive: [17] 100 % of control | dose: 50.0 mg/kg/injection, schedule: Q04DX002 (ip), vehicle: Klucel (hydroxypropylcellulose) (HPC) 103 % of control | [18] 100 % of control | [4] 103 % of control | [19] 100 % of control | [5] 100 % of control | [20] 100 % of control | [6] 96 % of control

COCCCNP(=O)(OC)OC
inactive: dose: 100.0 mg/kg/injection, schedule: Q01DX001 (ip), vehicle: acetone 98 % of control | dose: 100.0 mg/kg/injection, schedule: Q04DX003 (ip), vehicle: acetone 98 % of control | dose: 200.0 mg/kg/injection, schedule: Q01DX001 (ip), vehicle: acetone 112 % of control | dose: 200.0 mg/kg/injection, schedule: Q04DX003 (ip), vehicle: acetone 100 % of control | dose: 400.0 mg/kg/injection, schedule: Q01DX001 (ip), vehicle: acetone 105 % of control | dose: 400.0 mg/kg/injection, schedule: Q04DX003 (ip), vehicle: acetone 95 % of control
